What was measured:
[1] = molecular target: His-tagged KRAS G12D protein (Homo sapiens, UniProt P01116, G12D); assay: KRAS G12D TR-FRET assay (binding); settings: biotinylated KRPep-2d substrate, GDP in assay buffer
[2] = system: Phosphorylation of ERK1/2 in AsPC-1 cells; assay: Phospho-ERK1/2 MSD assay; format: cell-based; settings: Homo sapiens, ASPC1, read-out: 2 h p-ERK (AsPC-1 cells), IC50 (μM), 2 hours compound treatment
Method: Sixteen hours prior to compound treatment, AsPC-1 cells were seeded in 96-well cell culture plates at a density of 25,000 cells/well and incubated at 37° C., 5% CO2. A compound dose-response titration was diluted in growth media, added to appropriate wells of a cell culture plate, and then incubated at 37° C., 5% CO2 for 2 hours.

His-tagged KRAS G12D protein, sequence (P01116 1-188 isoform P01116-2 G12D): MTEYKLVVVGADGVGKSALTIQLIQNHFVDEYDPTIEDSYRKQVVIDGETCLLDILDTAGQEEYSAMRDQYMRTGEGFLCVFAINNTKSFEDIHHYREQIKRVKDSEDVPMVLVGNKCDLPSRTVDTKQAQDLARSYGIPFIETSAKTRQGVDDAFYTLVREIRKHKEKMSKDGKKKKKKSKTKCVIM

| Structure (SMILES) | IC50 [1] [nM] | IC50 [2] [µM] |
| --- | --- | --- |
| CCc1c(F)ccc2cc(O)cc(-c3ncc4c(N5CCOC[C@@](C)(O)C5)nc(OC[C@@]56CCCN5C[C@H](F)C6)nc4c3Cl)c12 (single isomer, unassigned) [Example 80] | 4 | 0.024 |
| CCc1c(F)ccc2cc(O)cc(-c3ncc4c(N5CCSCC5)nc(OC[C@@]56CCCN5C[C@H](F)C6)nc4c3F)c12 [Example 4, 5-Ethyl-6-fluoro-4-(8-fluoro-2-(((2R,7aS)-2-fluorotetrahydro-1H-pyrrolizin-7a(5H)-yl)methoxy)-4-thiomorpholino-pyrido[4,3-d]pyrimidin-7-yl)naphthalen-2-ol] | 4 | 0.486 |
| CCc1c(F)ccc2cc(O)cc(-c3ncc4c(N5[C@@H]6CC[C@H]5COC6)nc(OC[C@@]56CCCN5C[C@H](F)C6)nc4c3F)c12 [Example 6, 4-(4-((1R,5S)-3-Oxa-8-azabicyclo[3.2.1]octan-8-yl)-8-fluoro-2-(((2R,7aS)-2-fluorotetrahydro-1H-pyrrolizin-7a(5H)-yl)methoxy)pyrido [4,3-d]pyrimidin-7-yl)-5-ethyl-6-fluoronaphthalen-2-ol] | 69 | 1.77 |
| CN1C[C@H](F)C[C@H]1COc1nc(N2CCCOCC2)c2cnc(-c3cc(O)cc4ccc(F)c(F)c34)c(F)c2n1 [Example 8, 5,6-Difluoro-4-(8-fluoro-2-(((2S,4R)-4-fluoro-1-methylpyrrolidin-2-yl)methoxy)-4-(1,4-oxazepan-4-yl)pyrido[4,3-d]pyrimidin-7-yl)naphthalen-2-ol] | 5 | 0.103 |
| CCc1c(F)ccc2cc(O)cc(-c3ncc4c(N5CCCOCC5)nc(OC[C@@H]5C[C@@H](F)CN5C)nc4c3F)c12 [Example 9, 5-Ethyl-6-fluoro-4-(8-fluoro-2-(((2S,4R)-4-fluoro-1-methylpyrrolidin-2-yl)methoxy)-4-(1,4-oxazepan-4-yl)pyrido[4,3-d]pyrimidin-7-yl)naphthalen-2-ol] | 8 | 0.353 |
| C#Cc1cccc2cc(O)cc(-c3ncc4c(N5CCCOCC5)nc(OC[C@@H]5C[C@@H](F)CN5C)nc4c3F)c12 [Example 12, 5-Ethynyl-4-(8-fluoro-2-(((2S,4R)-4-fluoro-1-methylpyrrolidin-2-yl)methoxy)-4-(1,4-oxazepan-4-yl)pyrido[4,3-d]pyrimidin-7-yl)naphthalen-2-ol] | 4 | 0.131 |
| Oc1cc(-c2ncc3c(N4CCCOCC4)nc(OCC45CCCN4CCC5)nc3c2F)c2ccccc2c1 [Example 13, 4-(8-Fluoro-4-(1,4-oxazepan-4-yl)-2-((tetrahydro-1H-pyrrolizin-7a(5H)-yl)methoxy)pyrido [4,3-d]pyrimidin-7-yl)naphthalen-2-ol] | 11 | 4.18 |
| Cc1c(Cl)cc2[nH]ncc2c1-c1ncc2c(N3CCCOCC3)nc(OC[C@@]34CCCN3C[C@H](F)C4)nc2c1F [Example 15, 4-(7-(6-Chloro-5-methyl-1H-indazol-4-yl)-8-fluoro-2-(((2R,7aS)-2-fluorotetrahydro-1H-pyrrolizin-7a(5H)-yl)methoxy)pyrido [4,3-d]pyrimidin-4-yl)-1,4-oxazepane] | 36 | 4.51 |
| CN1C[C@H](F)C[C@H]1COc1nc(N2CCCOCC2)c2cnc(-c3cc(O)cc4ccccc34)c(F)c2n1 [Example 16, 4-(8-Fluoro-2-(((2S,4R)-4-fluoro-1-methylpyrrolidin-2-yl)methoxy)-4-(1,4-oxazepan-4-yl)pyrido[4,3-d]pyrimidin-7-yl)naphthalen-2-ol] | 73 | 4.83 |
| CCc1c(F)ccc2cc(O)cc(-c3ncc4c(N5CCCOCC5)nc(OCC5(CN6CCOCC6)CC5)nc4c3F)c12 [Example 17, 5-Ethyl-6-fluoro-4-(8-fluoro-2-((1-(morpholinomethyl)cyclopropyl)methoxy)-4-(1,4-oxazepan-4-yl)pyrido[4,3-d]pyrimidin-7-yl)naphthalen-2-ol] | 3 | 0.189 |
| Oc1cc(Cl)c(C2CC2)c(-c2ncc3c(N4CCCOCC4)nc(OC[C@@]45CCCN4C[C@H](F)C5)nc3c2F)c1 [Example 18, 3-Chloro-4-cyclopropyl-5-(8-fluoro-2-(((2R,7aS)-2-fluorotetrahydro-1H-pyrrolizin-7a(5H)-yl)methoxy)-4-(1,4-oxazepan-4-yl)pyrido[4,3-d]pyrimidin-7-yl)phenol] | 2 | 0.162 |
| Oc1cc(-c2ncc3c(N4C[C@H]5COC[C@@H](C4)O5)nc(OC[C@@]45CCCN4C[C@H](F)C5)nc3c2F)c2c(F)c(F)ccc2c1 [Example 19, 4-(4-((1R,5S)-3,9-Dioxa-7-azabicyclo[3.3.1]nonan-7-yl)-8-fluoro-2-(((2R,7aS)-2-fluorotetrahydro-1H-pyrrolizin-7a(5H)-yl)methoxy)pyrido [4,3-d]pyrimidin-7-yl)-5,6-difluoronaphthalen-2-ol] | 9 | 1.1 |
| CCc1c(F)ccc2cc(O)cc(-c3ncc4c(N5C[C@H]6COC[C@@H](C5)O6)nc(OC[C@@]56CCCN5C[C@H](F)C6)nc4c3F)c12 [Example 21, 4-(4-((1R,5S)-3,9-Dioxa-7-azabicyclo[3.3.1]nonan-7-yl)-8-fluoro-2-(((2R,7aS)-2-fluorotetrahydro-1H-pyrrolizin-7a(5H)-yl)methoxy)pyrido [4,3-d]pyrimidin-7-yl)-5-ethyl-6-fluoronaphthalen-2-ol] | 11 | 0.621 |
| Oc1cc(Cl)c(C2CC2)c(-c2ncc3c(N4CCCOCC4)nc(OCC4(CN5CCOCC5)CC4)nc3c2F)c1 [Example 22, 3-Chloro-4-cyclopropyl-5-(8-fluoro-2-((1-(morpholinomethyl)cyclopropyl)methoxy)-4-(1,4-oxazepan-4-yl)pyrido[4,3-d]pyrimidin-7-yl)phenol] | 11 | 1.29 |
| CCc1c(F)ccc2cc(O)cc(-c3ncc4c(N5C[C@H]6C[C@@H](C5)O6)nc(OC[C@@]56CCCN5C[C@H](F)C6)nc4c3F)c12 [Example 27, 4-(4-((1R,5S)-6-Oxa-3-azabicyclo[3.1.1]heptan-3-yl)-8-fluoro-2-(((2R,7aS)-2-fluorotetrahydro-1H-pyrrolizin-7a(5H)-yl)methoxy)pyrido [4,3-d]pyrimidin-7-yl)-5-ethyl-6-fluoronaphthalen-2-ol] | 62 | 2.28 |

Further lines, results first:

| IC50 [1] [nM] | IC50 [2] [µM] | Structure (SMILES) |
| --- | --- | --- |
| 1 | 0.033 | CCc1cccc2cc(O)cc(-c3ncc4c(N5CCCOCC5)nc(OC[C@@]56CCCN5C[C@H](F)C6)nc4c3F)c12 [Example 2, 5-Ethyl-4-(8-fluoro-2-(((2R,7aS)-2-fluorotetrahydro-1H-pyrrolizin-7a(5H)-yl)methoxy)-4-(1,4-oxazepan-4-yl)pyrido[4,3-d]pyrimidin-7-yl)naphthalen-2-ol] |
| 2 | 0.047 | Oc1cc(-c2ncc3c(N4CCCOCC4)nc(OC[C@@]45CCCN4C[C@H](F)C5)nc3c2F)c2c(F)c(F)ccc2c1 [Example 3, 5,6-Difluoro-4-(8-fluoro-2-(((2R,7aS)-2-fluorotetrahydro-1H-pyrrolizin-7a(5H)-yl)methoxy)-4-(1,4-oxazepan-4-yl)pyrido[4,3-d]pyrimidin-7-yl)naphthalen-2-ol] |
| 2 | 0.088 | CCc1c(F)ccc2cc(O)cc(-c3ncc4c(N5CCCSCC5)nc(OC[C@@]56CCCN5C[C@H](F)C6)nc4c3F)c12 [Example 5, 5-Ethyl-6-fluoro-4-(8-fluoro-2-(((2R,7aS)-2-fluorotetrahydro-1H-pyrrolizin-7a(5H)-yl)methoxy)-4-(1,4-thiazepan-4-yl)pyrido[4,3-d]pyrimidin-7-yl)naphthalen-2-ol] |
| 2 | 0.046 | CCc1cccc2cc(O)cc(-c3ncc4c(N5CCOCC(F)(F)C5)nc(OC[C@@]56CCCN5C[C@H](F)C6)nc4c3F)c12 [Example 7, 4-(4-(6,6-Difluoro-1,4-oxazepan-4-yl)-8-fluoro-2-(((2R,7aS)-2-fluorotetrahydro-1H-pyrrolizin-7a(5H)-yl)methoxy)pyrido [4,3-d]pyrimidin-7-yl)-5-ethylnaphthalen-2-ol] |
| 8 | 0.277 | CCc1cccc2cc(O)cc(-c3ncc4c(N5CC6COC(C6)C5)nc(OC[C@@]56CCCN5C[C@H](F)C6)nc4c3F)c12 (stereo partly drawn) [Example 10, 4-(4-(6-Oxa-3-azabicyclo[3.2.1]octan-3-yl)-8-fluoro-2-(((2R,7aS)-2-fluorotetrahydro-1H-pyrrolizin-7a(5H)-yl)methoxy)pyrido [4,3-d]pyrimidin-7-yl)-5-ethylnaphthalen-2-ol] |
| 5 | 0.336 | CCc1cccc2cc(O)cc(-c3ncc4c(N5CCCOCC5)nc(OCC5(CN6CCOCC6)CC5)nc4c3F)c12 [Example 20, 5-Ethyl-4-(8-fluoro-2-((1-(morpholinomethyl)cyclopropyl)methoxy)-4-(1,4-oxazepan-4-yl)pyrido[4,3-d]pyrimidin-7-yl)naphthalen-2-ol] |
| 29 | 1.15 | CCc1cccc2cc(O)cc(-c3ncc4c(N5C[C@H]6COC[C@@H](C5)O6)nc(OC[C@@]56CCCN5C[C@H](F)C6)nc4c3F)c12 [Example 23, 4-(4-((1R,5S)-3,9-Dioxa-7-azabicyclo[3.3.1]nonan-7-yl)-8-fluoro-2-(((2R,7aS)-2-fluorotetrahydro-1H-pyrrolizin-7a(5H)-yl)methoxy)pyrido [4,3-d]pyrimidin-7-yl)-5-ethylnaphthalen-2-ol] |
| 11 | 0.586 | CCc1c(F)ccc2cc(O)cc(-c3ncc4c(N5CCOCC5)nc(OC[C@@]56CCCN5C[C@H](F)C6)nc4c3F)c12 [Example 24, 5-Ethyl-6-fluoro-4-(8-fluoro-2-(((2R,7aS)-2-fluorotetrahydro-1H-pyrrolizin-7a(5H)-yl)methoxy)-4-morpholinopyrido [4,3-d]pyrimidin-7-yl)naphthalen-2-ol] |

— patent US20250122222A1, “HETEROCYCLIC COMPOUNDS AND METHODS OF USE” (AMGEN INC., priority 2021, published 2025)
